ChEMBL document CHEMBL1201862, “PubChem BioAssay data set” (2004)
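Assay format: 96-well plates, 48-hour exposure. Here, GI50 denotes the concentration required for 50% inhibition of growth.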 The source made the active and inactive calls. Cut-off read from the data, not from the text of the source: active = GI50 up to about 1.1 µM and inactive = higher.

Key:
Test in all cases: NCI tumour cell line growth inhibition, 48 h
RXF 393 = system: RXF 393
COLO 205 = system: COLO 205
PC-3 = system: PC-3
K562 = system: K562
A549 = system: A549
SW-620 = system: SW-620
UO-31 = system: UO-31
MCF7 = system: MCF7
LOX IMVI = system: LOX IMVI
CCRF-CEM = system: CCRF-CEM
SNB-75 = system: SNB-75
HOP-92 = system: HOP-92
SN12C = system: SN12C
UACC-62 = system: UACC-62
A498 = system: A498
SK-MEL-28 = system: SK-MEL-28
NCI-H460 = system: NCI-H460
Hs-578T = system: Hs-578T
MOLT-4 = system: MOLT-4
DU-145 = system: DU-145

Measured: GI50

O=C(O)c1ccc(Cc2ccccc2C(=O)O)cc1
inactive: RXF 393 > 100 µM | COLO 205 > 100 µM | PC-3 > 100 µM | K562 > 100 µM | A549 > 100 µM | SW-620 > 100 µM | UO-31 > 100 µM | MCF7 > 100 µM | LOX IMVI > 100 µM | CCRF-CEM > 100 µM | SNB-75 49.5 µM | HOP-92 > 100 µM | SN12C > 100 µM | UACC-62 > 100 µM | A498 > 100 µM | SK-MEL-28 > 100 µM | NCI-H460 > 100 µM | Hs-578T > 100 µM

C/C(CC(=O)Nc1ccc(NC(=O)C/C(C)=N\NC(N)=O)cc1)=N/NC(N)=O
inactive: RXF 393 > 91.4 µM | COLO 205 > 50.9 µM | K562 52.7 µM | A549 > 100 µM | SW-620 > 100 µM | UO-31 > 85.1 µM | MOLT-4 47.2 µM | LOX IMVI > 42.5 µM | CCRF-CEM > 62.8 µM | SNB-75 > 93.5 µM | HOP-92 71.1 µM | SN12C > 100 µM | UACC-62 > 84.9 µM | A498 > 100 µM | SK-MEL-28 > 44.4 µM | NCI-H460 > 62.4 µM

CN(C)CCNC(=O)c1cccc2[nH]c(-c3ccccc3)nc12
inactive: RXF 393 17.2 µM | COLO 205 11.6 µM | K562 26.4 µM | A549 16.3 µM | SW-620 13.1 µM | UO-31 12.8 µM | MOLT-4 4.91 µM | LOX IMVI 15.6 µM | CCRF-CEM 15.9 µM | SNB-75 37.8 µM | HOP-92 20.3 µM | SN12C 16.7 µM | UACC-62 18.5 µM | A498 13.1 µM | SK-MEL-28 18.3 µM | NCI-H460 15.4 µM

Cn1c(=O)cc(Nc2ccc(N)cc2)[nH]c1=O
inactive: RXF 393 > 100 µM | COLO 205 > 100 µM | PC-3 > 100 µM | K562 > 100 µM | A549 > 100 µM | SW-620 > 100 µM | UO-31 > 100 µM | MCF7 49.4 µM | MOLT-4 > 100 µM | LOX IMVI > 100 µM | CCRF-CEM > 100 µM | SNB-75 > 100 µM | HOP-92 > 100 µM | SN12C > 100 µM | UACC-62 > 100 µM | A498 > 100 µM | SK-MEL-28 > 100 µM | NCI-H460 > 100 µM | Hs-578T > 100 µM

CC1C2=C(CCCC2=O)N(c2ccc(Cl)cc2)C2=C1C(=O)CCC2
inactive: RXF 393 21.6 µM | PC-3 60 µM | K562 29.9 µM | A549 88.5 µM | SW-620 > 100 µM | UO-31 46.2 µM | MCF7 57.7 µM | MOLT-4 20.3 µM | LOX IMVI 68.5 µM | CCRF-CEM 38.5 µM | SNB-75 16.3 µM | HOP-92 42.3 µM | SN12C 83 µM | UACC-62 67.1 µM | A498 > 100 µM | SK-MEL-28 > 100 µM | NCI-H460 60.5 µM | Hs-578T 50.1 µM

CCOC(=O)/C=C(\C(=O)OCC)n1ccc(N)nc1=O
inactive: COLO 205 > 100 µM | PC-3 > 100 µM | K562 67.9 µM | A549 > 100 µM | SW-620 56.4 µM | UO-31 > 100 µM | MCF7 > 100 µM | MOLT-4 97.1 µM | DU-145 > 100 µM | LOX IMVI 88.7 µM | CCRF-CEM 22.4 µM | SNB-75 > 100 µM | HOP-92 57.4 µM | SN12C > 100 µM | UACC-62 > 100 µM | SK-MEL-28 1.34 µM | NCI-H460 > 100 µM | Hs-578T > 100 µM

CCOC(=O)C1(c2ccccc2)CCC(=O)CC1
inactive: RXF 393 > 100 µM | COLO 205 > 100 µM | K562 > 100 µM | A549 > 100 µM | SW-620 > 100 µM | UO-31 > 100 µM | MOLT-4 > 100 µM | LOX IMVI > 100 µM | CCRF-CEM > 100 µM | SNB-75 > 100 µM | HOP-92 > 100 µM | SN12C > 100 µM | UACC-62 > 100 µM | A498 > 100 µM | SK-MEL-28 > 100 µM | NCI-H460 > 100 µM

O=C1C2=Cc3ccccc3OC2(O)Oc2cc(O)cc(O)c21 (centres undefined)
inactive: RXF 393 > 100 µM | COLO 205 > 100 µM | PC-3 > 100 µM | K562 81.7 µM | A549 > 100 µM | SW-620 > 100 µM | MCF7 > 100 µM | MOLT-4 > 100 µM | DU-145 > 100 µM | LOX IMVI > 100 µM | CCRF-CEM 57.4 µM | SNB-75 > 100 µM | HOP-92 > 100 µM | SN12C > 100 µM | UACC-62 71.8 µM | A498 > 100 µM | SK-MEL-28 > 100 µM | NCI-H460 41.5 µM

COC(=O)C/N=C1\NC(=S)N(Cc2ccc(OC)cc2)C12CCCC2
inactive: RXF 393 > 100 µM | COLO 205 > 100 µM | PC-3 > 100 µM | K562 > 100 µM | A549 > 100 µM | SW-620 > 100 µM | UO-31 > 100 µM | MCF7 > 100 µM | MOLT-4 > 100 µM | DU-145 > 100 µM | CCRF-CEM > 100 µM | SNB-75 > 100 µM | HOP-92 > 100 µM | SN12C > 100 µM | UACC-62 > 100 µM | A498 > 100 µM | SK-MEL-28 > 100 µM | NCI-H460 > 100 µM

CCOC(OCC)N1C(=O)C2(C(OCC)OCC)CC3C(OC(=O)N3N)c3cccc1c32 (centres undefined)
inactive: RXF 393 > 100 µM | COLO 205 > 100 µM | K562 > 10 µM | A549 > 100 µM | SW-620 > 100 µM | UO-31 > 100 µM | MCF7 > 100 µM | MOLT-4 79.4 µM | DU-145 > 100 µM | LOX IMVI > 100 µM | CCRF-CEM 54.2 µM | SN12C > 100 µM | UACC-62 > 100 µM | A498 61.2 µM | SK-MEL-28 > 100 µM | NCI-H460 > 100 µM

C#C[C@]1(O)CC[C@H]2[C@@H]3CCC4=C/C(=N/NC(=O)c5cccc6c(=O)c7ccccc7[nH]c56)CCC4[C@H]3CC[C@@]21C (some centres undefined)
inactive: COLO 205 70 µM | PC-3 34.7 µM | K562 73.5 µM | A549 60.3 µM | SW-620 49.8 µM | UO-31 20.5 µM | MCF7 43.4 µM | MOLT-4 24.1 µM | DU-145 > 100 µM | LOX IMVI 58.1 µM | CCRF-CEM 40.3 µM | SNB-75 15 µM | HOP-92 > 100 µM | SN12C > 100 µM | UACC-62 30.8 µM | Hs-578T 32.1 µM
